# Source: the supplement of paper PMC10307832
# Legend:
# Experiment in all cases: relative viability (nuclei count vs DMSO), 5 days (fraction); higher = more cells survive
# COR-L 105 = system: COR-L 105
# Summary of the method: (§1)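 Each reported value is a median over duplicate plates. It expresses relative viability: treated-well nuclei count divided by vehicle-well nuclei count. Lung cancer cell lines in 1536-well plates were dosed by pin tool a day after seeding, alone with one drug or with a fixed anchor-drug dose plus five library-drug doses (not always all listed) in √10 steps, and nuclei were counted after 5 days.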
# NCI-H1975 = system: NCI-H1975
# Summary of the method: as §1
# CAL-12T = system: CAL-12T
# Summary of the method: as §1
# NCI-H1563 = system: NCI-H1563
# Summary of the method: as §1
# NCI-H2405 = system: NCI-H2405
# Summary of the method: as §1
# NCI-H1395 = system: NCI-H1395
# Summary of the method: as §1
# HCC-15 = system: HCC-15
# Summary of the method: as §1
# NCI-H1915 = system: NCI-H1915
# Summary of the method: as §1
# LC-2-ad = system: LC-2-ad
# Summary of the method: as §1
# UMC-11 = system: UMC-11
# Summary of the method: as §1
# NCI-H2023 = system: NCI-H2023
# Summary of the method: as §1
# EPLC-272H = system: EPLC-272H
# Summary of the method: as §1
# LCLC-97TM1 = system: LCLC-97TM1
# Summary of the method: as §1
# NCI-H1734 = system: NCI-H1734
# Summary of the method: as §1
# NCI-H1792 = system: NCI-H1792
# Summary of the method: as §1
# A-427 = system: A-427
# Summary of the method: as §1
# NCI-H838 = system: NCI-H838
# Summary of the method: as §1
# NCI-H2347 = system: NCI-H2347
# Summary of the method: as §1
# NCI-H520 = system: NCI-H520
# Summary of the method: as §1
# HCC-44 = system: HCC-44
# Summary of the method: as §1
# SW 1573 = system: SW 1573
# Summary of the method: as §1
smiles,measurement,setting,value
Cc1cn(-c2cc(NC(=O)c3ccc(C)c(Nc4nccc(-c5cccnc5)n4)c3)cc(C(F)(F)F)c2)cn1 [Nilotinib] + C[C@]1(O)C[C@@H](c2nc(-c3ccc4ccc(-c5ccccc5)nc4c3)c3c(N)nccn32)C1 [Linsitinib] (partner 1 µM),relative viability,COR-L 105; first compound 0.001 µM,0.913
same,relative viability,COR-L 105; first compound 0.01 µM,1
same,relative viability,COR-L 105; first compound 0.03162 µM,0.849
same,relative viability,COR-L 105; first compound 0.1 µM,0.823
same,relative viability,NCI-H1975; first compound 0.001 µM,0.913
same,relative viability,NCI-H1975; first compound 0.003162 µM,1.23
same,relative viability,NCI-H1975; first compound 0.01 µM,1.03
same,relative viability,NCI-H1975; first compound 0.03162 µM,0.688
same,relative viability,NCI-H1975; first compound 0.1 µM,0.822
same,relative viability,CAL-12T; first compound 0.001 µM,0.75
same,relative viability,CAL-12T; first compound 0.003162 µM,0.771
same,relative viability,CAL-12T; first compound 0.01 µM,0.946
same,relative viability,CAL-12T; first compound 0.03162 µM,0.714
same,relative viability,CAL-12T; first compound 0.1 µM,0.565
same,relative viability,NCI-H1563; first compound 0.001 µM,1.13
same,relative viability,NCI-H1563; first compound 0.003162 µM,1.17
same,relative viability,NCI-H1563; first compound 0.01 µM,1.17
same,relative viability,NCI-H1563; first compound 0.03162 µM,1.15
same,relative viability,NCI-H2405; first compound 0.001 µM,0.976
same,relative viability,NCI-H2405; first compound 0.003162 µM,0.916
same,relative viability,NCI-H2405; first compound 0.01 µM,0.838
same,relative viability,NCI-H2405; first compound 0.03162 µM,0.789
same,relative viability,NCI-H2405; first compound 0.1 µM,0.74
same,relative viability,NCI-H1395; first compound 0.001 µM,1
same,relative viability,NCI-H1395; first compound 0.003162 µM,0.826
same,relative viability,NCI-H1395; first compound 0.01 µM,1.07
same,relative viability,NCI-H1395; first compound 0.03162 µM,0.86
same,relative viability,NCI-H1395; first compound 0.1 µM,0.759
same,relative viability,HCC-15; first compound 0.001 µM,0.874
same,relative viability,HCC-15; first compound 0.003162 µM,1.01
same,relative viability,HCC-15; first compound 0.01 µM,0.987
same,relative viability,HCC-15; first compound 0.03162 µM,0.743
same,relative viability,HCC-15; first compound 0.1 µM,0.744
same,relative viability,NCI-H1915; first compound 0.001 µM,1.01
same,relative viability,NCI-H1915; first compound 0.003162 µM,1.09
same,relative viability,NCI-H1915; first compound 0.03162 µM,1.06
same,relative viability,NCI-H1915; first compound 0.1 µM,1.09
same,relative viability,LC-2-ad; first compound 0.001 µM,0.862
same,relative viability,LC-2-ad; first compound 0.003162 µM,0.985
same,relative viability,LC-2-ad; first compound 0.01 µM,1.02
same,relative viability,LC-2-ad; first compound 0.03162 µM,0.897
same,relative viability,LC-2-ad; first compound 0.1 µM,0.735
same,relative viability,UMC-11; first compound 0.001 µM,1
same,relative viability,UMC-11; first compound 0.003162 µM,1.26
same,relative viability,UMC-11; first compound 0.01 µM,1.27
same,relative viability,UMC-11; first compound 0.1 µM,1.13
same,relative viability,NCI-H2023; first compound 0.001 µM,0.74
same,relative viability,NCI-H2023; first compound 0.003162 µM,0.735
same,relative viability,NCI-H2023; first compound 0.01 µM,0.798
same,relative viability,NCI-H2023; first compound 0.03162 µM,0.666
same,relative viability,NCI-H2023; first compound 0.1 µM,0.525
same,relative viability,EPLC-272H; first compound 0.001 µM,1.38
same,relative viability,EPLC-272H; first compound 0.003162 µM,1.34
same,relative viability,EPLC-272H; first compound 0.01 µM,1.42
same,relative viability,EPLC-272H; first compound 0.03162 µM,1.08
same,relative viability,EPLC-272H; first compound 0.1 µM,1.18
same,relative viability,LCLC-97TM1; first compound 0.001 µM,0.198
same,relative viability,LCLC-97TM1; first compound 0.003162 µM,0.228
same,relative viability,LCLC-97TM1; first compound 0.01 µM,0.276
same,relative viability,LCLC-97TM1; first compound 0.03162 µM,0.245
same,relative viability,LCLC-97TM1; first compound 0.1 µM,0.247
same,relative viability,NCI-H1734; first compound 0.001 µM,0.882
same,relative viability,NCI-H1734; first compound 0.003162 µM,0.977
same,relative viability,NCI-H1734; first compound 0.01 µM,0.972
same,relative viability,NCI-H1734; first compound 0.03162 µM,0.669
same,relative viability,NCI-H1734; first compound 0.1 µM,0.561
same,relative viability,NCI-H1792; first compound 0.001 µM,0.334
same,relative viability,NCI-H1792; first compound 0.01 µM,0.583
same,relative viability,NCI-H1792; first compound 0.1 µM,0.565
same,relative viability,A-427; first compound 0.001 µM,1.13
same,relative viability,A-427; first compound 0.01 µM,1.26
same,relative viability,A-427; first compound 0.03162 µM,1.16
same,relative viability,A-427; first compound 0.1 µM,1.01
same,relative viability,NCI-H838; first compound 0.001 µM,0.989
same,relative viability,NCI-H838; first compound 0.003162 µM,1.37
same,relative viability,NCI-H838; first compound 0.01 µM,1.39
same,relative viability,NCI-H838; first compound 0.03162 µM,0.967
same,relative viability,NCI-H838; first compound 0.1 µM,0.968
same,relative viability,NCI-H2347; first compound 0.001 µM,1.01
same,relative viability,NCI-H2347; first compound 0.003162 µM,1.11
same,relative viability,NCI-H2347; first compound 0.01 µM,1.1
same,relative viability,NCI-H2347; first compound 0.03162 µM,0.903
same,relative viability,NCI-H2347; first compound 0.1 µM,0.909
same,relative viability,NCI-H520; first compound 0.001 µM,0.792
same,relative viability,NCI-H520; first compound 0.01 µM,1.2
same,relative viability,NCI-H520; first compound 0.03162 µM,0.91
same,relative viability,NCI-H520; first compound 0.1 µM,0.928
same,relative viability,HCC-44; first compound 0.001 µM,0.624
same,relative viability,HCC-44; first compound 0.003162 µM,0.768
same,relative viability,HCC-44; first compound 0.01 µM,0.821
same,relative viability,HCC-44; first compound 0.03162 µM,0.615
same,relative viability,HCC-44; first compound 0.1 µM,0.739
same,relative viability,SW 1573; first compound 0.001 µM,0.939
same,relative viability,SW 1573; first compound 0.003162 µM,0.935
same,relative viability,SW 1573; first compound 0.01 µM,0.73
same,relative viability,SW 1573; first compound 0.03162 µM,0.756
same,relative viability,SW 1573; first compound 0.1 µM,0.841
